# From ChEMBL document CHEMBL1148029, “Synthesis and radiopharmacological characterization of 2beta-carbo-2'-[18F]fluoroethoxy-3beta-(4-bromo-phenyl)tropane ([18F]MCL-322) as a PET radiotracer for imaging the dopamine transporter (DAT)” (Bioorg Med Chem, 2007)
# Experiments:
# [1] = tested on: Muscle tissue; test: Biodistribution in Wistar rat muscle at 300 uCi, iv after 5 mins; format: ADME, organism-based; settings: in vivo
# [2] = tested on: Muscle tissue; test: Biodistribution in Wistar rat muscle at 300 uCi, iv after 240 mins; format: ADME, organism-based; settings: in vivo, 4 h
# [3] = tested on: Heart; test: Biodistribution in Wistar rat heart at 300 uCi, iv after 60 mins; format: ADME, organism-based; settings: in vivo, 1 h
# [4] = tested on: Heart; test: Biodistribution in Wistar rat heart at 300 uCi, iv after 240 mins; format: ADME, organism-based; settings: in vivo, 4 h
# [5] = tested on: Cerebellum; test: Biodistribution in Wistar rat cerebellum at 300 uCi, iv after 60 mins in presence of GBR-12909; format: ADME, organism-based; settings: in vivo, 1 h
# [6] = tested on: Hippocampus; test: Biodistribution in Wistar rat hippocampus at 300 uCi, iv after 60 mins in presence of nisoxetine; format: ADME, organism-based; settings: in vivo, 1 h
# [7] = tested on: Testes; test: Biodistribution in Wistar rat testes at 300 uCi, iv after 5 mins; format: ADME, organism-based, Testis; settings: in vivo
# [8] = tested on: Blood; test: Biodistribution in Wistar rat blood at 300 uCi, iv after 120 mins; format: ADME, organism-based; settings: in vivo, 2 h
# [9] = tested on: Blood; test: Biodistribution in Wistar rat blood at 300 uCi, iv after 240 mins; format: ADME, organism-based; settings: in vivo, 4 h
# [10] = Biodistribution in Wistar rat brown fat at 300 uCi, iv after 20 mins; format: ADME, organism-based, Brown adipose tissue; settings: in vivo
# [11] = Biodistribution in Wistar rat brown fat at 300 uCi, iv after 60 mins; format: ADME, organism-based, Brown adipose tissue; settings: in vivo, 1 h
# [12] = Biodistribution in Wistar rat brown fat at 300 uCi, iv after 240 mins; format: ADME, organism-based, Brown adipose tissue; settings: in vivo, 4 h
# [13] = Biodistribution in Wistar rat hair and skin at 300 uCi, iv after 5 mins; format: ADME, organism-based; settings: in vivo
# [14] = Biodistribution in Wistar rat hair and skin at 300 uCi, iv after 20 mins; format: ADME, organism-based; settings: in vivo
# [15] = Biodistribution in Wistar rat hair and skin at 300 uCi, iv after 60 mins; format: ADME, organism-based; settings: in vivo, 1 h
# [16] = Biodistribution in Wistar rat hair and skin at 300 uCi, iv after 120 mins; format: ADME, organism-based; settings: in vivo, 2 h
# [17] = Biodistribution in Wistar rat hair and skin at 300 uCi, iv after 240 mins; format: ADME, organism-based; settings: in vivo, 4 h
# [18] = tested on: Pancreas; test: Biodistribution in Wistar rat pancreas at 300 uCi, iv after 240 mins; format: ADME, organism-based; settings: in vivo, 4 h
# [19] = tested on: Spleen; test: Biodistribution in Wistar rat spleen at 300 uCi, iv after 120 mins; format: ADME, organism-based; settings: in vivo, 2 h
# [20] = tested on: Spleen; test: Biodistribution in Wistar rat spleen at 300 uCi, iv after 240 mins; format: ADME, organism-based; settings: in vivo, 4 h
# [21] = tested on: Adrenal; test: Biodistribution in Wistar rat adrenal gland at 300 uCi, iv after 5 mins; format: ADME, organism-based, Adrenal tissue; settings: in vivo
# [22] = tested on: Adrenal; test: Biodistribution in Wistar rat adrenal gland at 300 uCi, iv after 60 mins; format: ADME, organism-based, Adrenal tissue; settings: in vivo, 1 h
# [23] = tested on: Kidney; test: Biodistribution in Wistar rat kidney at 300 uCi, iv after 5 mins; format: ADME, organism-based; settings: in vivo
# [24] = Biodistribution in Wistar rat fat at 300 uCi, iv after 20 mins; format: ADME, organism-based, Adipose tissue; settings: in vivo
# [25] = Biodistribution in Wistar rat fat at 300 uCi, iv after 60 mins; format: ADME, organism-based, Adipose tissue; settings: in vivo, 1 h
# [26] = Biodistribution in Wistar rat fat at 300 uCi, iv after 120 mins; format: ADME, organism-based, Adipose tissue; settings: in vivo, 2 h
# [27] = tested on: Lung; test: Biodistribution in Wistar rat lung at 300 uCi, iv after 60 mins; format: ADME, organism-based; settings: in vivo, 1 h
# [28] = tested on: Lung; test: Biodistribution in Wistar rat lung at 300 uCi, iv after 120 mins; format: ADME, organism-based; settings: in vivo, 2 h
# [29] = tested on: Lung; test: Biodistribution in Wistar rat lung at 300 uCi, iv after 240 mins; format: ADME, organism-based; settings: in vivo, 4 h
# [30] = tested on: Thymus; test: Biodistribution in Wistar rat thymus at 300 uCi, iv after 5 mins; format: ADME, organism-based; settings: in vivo
# [31] = tested on: Thymus; test: Biodistribution in Wistar rat thymus at 300 uCi, iv after 20 mins; format: ADME, organism-based; settings: in vivo
# [32] = tested on: Thymus; test: Biodistribution in Wistar rat thymus at 300 uCi, iv after 60 mins; format: ADME, organism-based; settings: in vivo, 1 h
# [33] = tested on: Harderian gland; test: Biodistribution in Wistar rat harderian glands at 300 uCi, iv after 60 mins; format: ADME, organism-based; settings: in vivo, 1 h
# [34] = tested on: Liver; test: Biodistribution in Wistar rat liver at 300 uCi, iv after 60 mins; format: ADME, organism-based; settings: in vivo, 1 h
# [35] = tested on: Femur; test: Biodistribution in Wistar rat femur at 300 uCi, iv after 20 mins; format: ADME, organism-based; settings: in vivo
# [36] = tested on: Femur; test: Biodistribution in Wistar rat femur at 300 uCi, iv after 60 mins; format: ADME, organism-based; settings: in vivo, 1 h
# [37] = tested on: Femur; test: Biodistribution in Wistar rat femur at 300 uCi, iv after 120 mins; format: ADME, organism-based; settings: in vivo, 2 h
# [38] = tested on: Striatum; test: Biodistribution in Wistar rat striatum at 300 uCi, iv after 5 mins; format: ADME, organism-based; settings: in vivo
# [39] = tested on: Cerebellum; test: Biodistribution in Wistar rat cerebellum at 300 uCi, iv after 60 mins; format: ADME, organism-based; settings: in vivo, 1 h
# [40] = tested on: Cerebellum; test: Biodistribution in Wistar rat cerebellum at 300 uCi, iv after 120 mins; format: ADME, organism-based; settings: in vivo, 2 h
# [41] = tested on: Cerebellum; test: Biodistribution in Wistar rat cerebellum at 300 uCi, iv after 240 mins; format: ADME, organism-based; settings: in vivo, 4 h
# [42] = tested on: Hippocampus; test: Biodistribution in Wistar rat hippocampus at 300 uCi, iv after 5 mins; format: ADME, organism-based; settings: in vivo
# [43] = tested on: Hippocampus; test: Biodistribution in Wistar rat hippocampus at 300 uCi, iv after 20 mins; format: ADME, organism-based; settings: in vivo
# [44] = tested on: Hippocampus; test: Biodistribution in Wistar rat hippocampus at 300 uCi, iv after 60 mins; format: ADME, organism-based; settings: in vivo, 1 h
# [45] = tested on: Hippocampus; test: Biodistribution in Wistar rat hippocampus at 300 uCi, iv after 120 mins; format: ADME, organism-based; settings: in vivo, 2 h
# [46] = Biodistribution in Wistar rat rest of brain at 300 uCi, iv after 20 mins; format: ADME, organism-based; settings: in vivo
# [47] = Biodistribution in Wistar rat rest of brain at 300 uCi, iv after 60 mins; format: ADME, organism-based; settings: in vivo, 1 h
# [48] = Biodistribution in Wistar rat rest of brain at 300 uCi, iv after 120 mins; format: ADME, organism-based; settings: in vivo, 2 h
# [49] = tested on: Blood; test: Biodistribution in Wistar rat blood at 300 uCi, iv after 60 mins in presence of citalopram; format: ADME, organism-based; settings: in vivo, 1 h
# [50] = tested on: Striatum; test: Biodistribution in Wistar rat striatum at 300 uCi, iv after 60 mins in presence of GBR-12909; format: ADME, organism-based; settings: in vivo, 1 h
# [51] = tested on: Striatum; test: Biodistribution in Wistar rat striatum at 300 uCi, iv after 60 mins in presence of citalopram; format: ADME, organism-based; settings: in vivo, 1 h
# [52] = tested on: Striatum; test: Biodistribution in Wistar rat striatum at 300 uCi, iv after 60 mins in presence of nisoxetine; format: ADME, organism-based; settings: in vivo, 1 h
# [53] = tested on: Cortex; test: Biodistribution in Wistar rat cortex at 300 uCi, iv after 60 mins in presence of GBR-12909; format: ADME, organism-based; settings: in vivo, 1 h
# [54] = tested on: Cortex; test: Biodistribution in Wistar rat cortex at 300 uCi, iv after 60 mins in presence of citalopram; format: ADME, organism-based; settings: in vivo, 1 h
# [55] = tested on: Brain; test: Biodistribution in Wistar rat rest of brain at 300 uCi, iv after 60 mins in presence of citalopram; format: ADME, organism-based; settings: in vivo, 1 h
# [56] = tested on: Cortex; test: Biodistribution in Wistar rat cortex at 300 uCi, iv after 20 mins; format: ADME, organism-based; settings: in vivo
# [57] = tested on: Cortex; test: Biodistribution in Wistar rat cortex at 300 uCi, iv after 120 mins; format: ADME, organism-based; settings: in vivo, 2 h
# [58] = tested on: Testes; test: Biodistribution in Wistar rat testes at 300 uCi, iv after 60 mins; format: ADME, organism-based, Testis; settings: in vivo, 1 h
# [59] = tested on: Testes; test: Biodistribution in Wistar rat testes at 300 uCi, iv after 240 mins; format: ADME, organism-based, Testis; settings: in vivo, 4 h
# [60] = tested on: Plasma; test: Metabolic stability in Wistar rat plasma assessed as polar metabolite level at 1 mCi, iv after 1.5 mins; format: ADME, organism-based; settings: in vivo, 0.025 h
# [61] = tested on: Plasma; test: Metabolic stability in Wistar rat plasma assessed as polar metabolite level at 1 mCi, iv after 10 mins; format: ADME, organism-based; settings: in vivo
structure (smiles),measurement,setting,value
CN1C2CCC1C(C(=O)OCC[18F])C(c1ccc(Br)cc1)C2 (stereo unspecified),Drug uptake,[1],0.42 % ID/g
same,Drug uptake,[2],0.04 % ID/g
same,Drug uptake,[3],0.21 % ID/g
same,Drug uptake,[4],0.07 % ID/g
same,Drug uptake,[5],0.62 % ID/g
same,Drug uptake,[6],0.91 % ID/g
same,Drug uptake,[7],0.33 % ID/g
same,Drug uptake,[8],0.03 % ID/g
same,Drug uptake,[9],0.03 % ID/g
same,Drug uptake,[10],0.78 % ID/g
same,Drug uptake,[11],0.39 % ID/g
same,Drug uptake,[12],0.08 % ID/g
same,Drug uptake,[13],0.47 % ID/g
same,Drug uptake,[14],0.47 % ID/g
same,Drug uptake,[15],0.29 % ID/g
same,Drug uptake,[16],0.17 % ID/g
same,Drug uptake,[17],0.08 % ID/g
same,Drug uptake,[18],0.13 % ID/g
same,Drug uptake,[19],0.29 % ID/g
same,Drug uptake,[20],0.12 % ID/g
same,Drug uptake,[21],3.57 % ID/g
same,Drug uptake,[22],0.58 % ID/g
same,Drug uptake,[23],4.64 % ID/g
same,Drug uptake,[24],0.48 % ID/g
same,Drug uptake,[25],0.27 % ID/g
same,Drug uptake,[26],0.16 % ID/g
same,Drug uptake,[27],1.14 % ID/g
same,Drug uptake,[28],0.54 % ID/g
same,Drug uptake,[29],0.27 % ID/g
same,Drug uptake,[30],0.89 % ID/g
same,Drug uptake,[31],0.82 % ID/g
same,Drug uptake,[32],0.41 % ID/g
same,Drug uptake,[33],2.37 % ID/g
same,Drug uptake,[34],11.8 % ID/g
same,Drug uptake,[35],0.42 % ID/g
same,Drug uptake,[36],0.17 % ID/g
same,Drug uptake,[37],0.1 % ID/g
same,Drug uptake,[38],3.23 % ID/g
same,Drug uptake,[39],0.56 % ID/g
same,Drug uptake,[40],0.24 % ID/g
same,Drug uptake,[41],0.09 % ID/g
same,Drug uptake,[42],2.37 % ID/g
same,Drug uptake,[43],1.99 % ID/g
same,Drug uptake,[44],1.12 % ID/g
same,Drug uptake,[45],0.42 % ID/g
same,Drug uptake,[46],2.06 % ID/g
same,Drug uptake,[47],1.1 % ID/g
same,Drug uptake,[48],0.59 % ID/g
same,Drug uptake,[49],0.052 % ID/g
same,Drug uptake,[50],1.51 % ID/g
same,Drug uptake,[51],6.43 % ID/g
same,Drug uptake,[52],4.18 % ID/g
same,Drug uptake,[53],0.94 % ID/g
same,Drug uptake,[54],0.97 % ID/g
same,Drug uptake,[55],1.56 % ID/g
same,Drug uptake,[56],2.29 % ID/g
same,Drug uptake,[57],0.45 % ID/g
same,Drug uptake,[58],0.5 % ID/g
same,Drug uptake,[59],0.17 % ID/g
same,Stability,[60],21%
same,Stability,[61],61%
